From paper PMC8765781, “A platform of assays for the discovery of anti-Zika small-molecules with activity in a 3D-bioprinted outer-blood-retina model” (PLoS ONE, 2022)
Like-named read-outs stand apart in the source and are kept apart here. Where a SMILES comes first, the peptide text is derived from it. [ ]: non-standard residue; d: D form. ξ: configuration not given here. ξLac(3-iPr) = CC(C)CC(O)C(=O)O; NMeV = CN[CH](C(=O)O)C(C)C; NMeA = CN[CH](C)C(=O)O; βAla = NCCC(=O)O

System: wild-type ZIKV (Ugandan MR766 strain) in Vero cells
Test: ZIKV cytopathic effect (CPE) inhibition qHTS assay, CellTiter-Glo readout
Type: cell-based, Zika virus
Conditions: for AC50 / Emax: Zika virus, Vero; for Emax: read-out: Max response
[1] = read-out: Log AC50 (M) (converted)

SMILES	CC-v2 (curve class classification of the dose response curve)	Efficacy	AC50 [M]	AC50 [1] [M]	other results
O=C1Nc2ccc(Cl)cc2[C@@](C#CC2CC2)(C(F)(F)F)O1 [NCGC00159337, efavirenz, reference compound]					Identified as active in CPE assay validation set: identified
C=C[C@H]1[C@H](O[C@@H]2O[C@H](CO)[C@@H](O)[C@H](O)[C@H]2O)OC=C(C(=O)OC)[C@H]1CCO [NCGC00384878-01]	-3	-80.569	2.02e-05	2.02e-05	
Cc1cc(OCCC[S+](C)(=O)[O-])cc(C)c1-c1cccc(COc2ccc3c(c2)OCC3CC(=O)O)c1 (centres unmarked) [NCGC00389617-01]	-3	-41.849	2.31e-05	2.31e-05	
C=CC/C=C\C/C=C\CCCCCCCc1cc(O)cc(O)c1 [NCGC00168928-02]		-22.946	4.53e-05	4.53e-05	
COc1cc2c(NC3CCN(C(C)C)CC3)nc(C3CCCCC3)nc2cc1OCCCN1CCCC1 [NCGC00189220-03]		-26.68	7.31e-05	7.31e-05	
C=C1CC2OC(=O)C(=C)C2C(OC(=O)/C(C)=C\C)CC2(C)OC1=CC2=O (centres unmarked) [NCGC00384607-01]	-3	-115.469	4.53e-05	4.53e-05	
O=c1c2ccccc2nc2n1CCc1c-2[nH]c2ccccc12 [NCGC00015892-08]	-2.2	-34.451	4.11e-05	4.11e-05	
COC1CCCC(C)OC(=O)Cc2cc(O)cc(O)c2C(=O)C1 (centres unmarked) [NCGC00384664-01]					AC50 (from Hill fit of the response curve, 50% of maximum activity response, 194 cherry-picked compounds, protocol name not given, read-out: AC50): 4.53e-05 M; AC50 (potency in log units (Molar) from Hill fit of the response curve, 194 cherry-picked compounds, protocol name not given, read-out: Log AC50 (converted)): 4.53e-05 M; CC-v2 (curve class classification of the dose response curve) (curve class v2 (Inglese et al. 2006)): -3; Efficacy (difference between neutral response and maximum compound response): -54.826
COc1ccc(CCN(C)CCCC(C#N)(c2ccc(OC)c(OC)c2)C(C)C)cc1OC (centres unmarked) [NCGC00016083, Verapamil, reference compound]					Identified as active in CPE assay validation set: identified
CC(/C=C/C=C(\C)C(=O)O[C@@H]1O[C@H](CO[C@@H]2O[C@H](CO)[C@@H](O)[C@H](O)[C@H]2O)[C@@H](O)[C@H](O)[C@H]1O)=C\C=C\C=C(C)\C=C\C=C(/C)C(=O)O[C@@H]1C[C@](O)(C(=O)O)C[C@@H](O)[C@H]1OC(=O)/C=C/c1ccc(O)c(O)c1 [NCGC00384868-01]	-3	-78.383	6.93e-06	6.93e-06	
O=C1c2c(O[C@@H]3O[C@H](CO)[C@@H](O)[C@H](O)[C@H]3O)cc(O)cc2OC1(O)Cc1ccc(O)cc1 (some centres unmarked) [NCGC00168800-03]	-3	-41.876	3.17e-05	3.17e-05	
C[C@H]1[C@H](C)CC[C@]2(C(=O)O)CC[C@]3(C)C(=CC[C@@H]4[C@@]5(C)C[C@@H](O)[C@H](O)[C@@](C)(CO)[C@@H]5CC[C@]43C)[C@H]12 [NCGC00346584-02]		-33.569	5.8e-05	5.8e-05	
CC1CCC2C(=CCC(O)C2(C)C)C1(C)Cc1c(O)cc(CO)c(C=O)c1O (centres unmarked) [NCGC00380764-01]	-2.2	-71.029	4.04e-05	4.04e-05	
C/C=C(\C)C(=O)OC1CC2C(CC=C3CC(OC4CC(OC)C(OC5CC(OC)C(OC6CC(OC)C(OC7CC(OC)C(OC8CC(OC)C(OC9OC(CO)C(O)C(O)C9O)C(C)O8)C(C)O7)C(C)O6)C(C)O5)C(C)O4)CCC32C)C2(O)CCC(C(C)=O)C12C (centres unmarked) [NCGC00381127-01]					AC50 (primary qHTS curve fit, 194 cherry-picked compounds, log10 of molar AC50, read-out: Log AC50 (converted)): 4.36e-06 M; AC50 (primary qHTS curve fit, values match uM against the Log AC50 column, read-out: AC50): 4.36e-06 M; Emax (response at highest concentration): 4.53%; Curve class (qHTS curve class, negative sign = inhibitory curve): -3
CN(CC[C@H](N)CC(=O)N[C@H]1C=C[C@@H](n2ccc(N)nc2=O)O[C@@H]1C(=O)O)C(=N)N [NCGC00386414-01]	-1.1	-84.972	2.66e-06	2.66e-06	
COc1cc2c(cc1O)C1(Cc3ccc4c(c3C1O)OCO4)[N+](C)([O-])CC2 (centres unmarked) [NCGC00385471-01]		-50.391	6.4e-07	6.4e-07	
C[C@H]1CCC[C@H](O)CCC/C=C/c2cc(O)cc(O)c2C(=O)O1 [NCGC00485224-01]	-3	-58.539	6.51e-05	6.51e-05	
C=C1C(=O)OC2/C=C(\C)C3=CC(=O)C(C)(CC(OC(=O)/C(C)=C/COC(C)=O)C12)O3 (centres unmarked) [NCGC00384503-01]	-2.1	-109.374	3.17e-05	3.17e-05	
OCCCNc1cc(-c2ccnc(Nc3cccc(Cl)c3)n2)ccn1 [NCGC00346940-02]	-2.1	-105.653	6.51e-05	6.51e-05	

SMILES	CC-v2 (curve class classification of the dose response curve)	Efficacy	AC50 [M]	AC50 [1] [M]	other results
C=C(C)C(=O)O[C@H]1[C@@H]2[C@H](C)C(=O)O[C@@H]2C[C@@H](C)[C@@H]2C=CC(=O)[C@]21C [NCGC00347858-02]	-2.1	-111.628	4.53e-05	4.53e-05	
C[C@H]1O[C@@H](O[C@H]2[C@@H](O)C[C@H](O[C@H]3[C@@H](O)C[C@H](O[C@H]4CC[C@@]5(C)[C@H](CC[C@@H]6[C@@H]5C[C@@H](O)[C@]5(C)[C@@H](C7=CC(=O)OC7)CC[C@]65O)C4)O[C@@H]3C)O[C@@H]2C)C[C@H](O)[C@@H]1O [NCGC00090797-15]		-19.155	8.2e-06	8.2e-06	
O=S(=O)(c1ccc(S(=O)(=O)n2cnc3ccccc32)cc1)N1CCCCCC1 [MLS000033224-02]	-3	-29.668	3.17e-05	3.17e-05	
Cc1cc(C)c2nc(-c3ccccn3)cc(C(=O)Nc3ccc([S+](=O)([O-])Nc4onc(C)c4C)cc3)c2c1 [NCGC00370745-03]		-23.798	3.26e-05	3.26e-05	
CC(C)c1cccc2c(-c3ccccc3)cc(-c3ccc(-c4ccc(C(=O)O)cc4)[nH]3)nc12 [NCGC00370963-01]	-3	-43.883	2.91e-05	2.91e-05	
C[C@@H]1C[C@@H]([C@@H](O)C(C)(C)O)O[C@H]2C[C@@]3(C)C(=C12)C[C@H](O)[C@H]1[C@@]2(C)CCC(=O)C(C)(C)C2CC[C@@]13C (some centres unmarked) [NCGC00384870-01]	-3	-67.591	1.59e-05	1.59e-05	
CCC(C)C1NC(=O)C2CCCN2C(=O)C(CC(C)C)OC(=O)CCNC(=O)C(C)N(C)C(=O)C(C(C)C)N(C)C1=O (centres unmarked) [NCGC00169957-03] (cyclo([ξLac(3-iPr)]PI[NMeV][NMeA][βAla]); configuration not given here)	-2.2	-56.609	1.93e-05	1.93e-05	
COC(=O)C12CCC(C)C(C)C1C1=CCC3C4(C)CCC(OC(C)=O)C(C)(C)C4CCC3(C)C1(C)CC2 (centres unmarked) [NCGC00179932-02]	-3	-73.633	1.42e-05	1.42e-05	
CCC(=C(c1ccc(OCCN2CCCC2)cc1)c1ccc(OCCN2CCCC2)cc1)c1ccccc1 [NCGC00408918-01]	-3	-39.621	5.8e-05	5.8e-05	
O=C(c1cn(Cc2cncn2Cc2ccc(Br)cc2)cc1-c1cccc2ccccc12)N1CCOCC1 [NCGC00370772-05]	-2.2	-38.989	3.66e-05	3.66e-05	
CC(=O)OCC1OC(O[C@H]2CC[C@@]3(C)C(CC[C@]4(C)C3CC=C3[C@@H]5CC(C)(C)CC[C@]5(C(=O)O)CC[C@]34C)[C@]2(C)CO)C(O)C(O)C1OC1OC(C)C(O)C(OC2OCC(O)C(O)C2O)C1O (some centres unmarked) [NCGC00380575-01]		-26.099	7.78e-06	7.78e-06	
C/C=C/c1ccc2oc(-c3ccc(O)c(OC)c3)c(C)c2c1 [NCGC00385078-01]	-3	-53.705	2.31e-05	2.31e-05	
C=CC(=O)N1CCCN(c2cc(NCCC(=O)O)nc(-c3ccccn3)n2)CC1 [NCGC00420854-01]		-33.164	5.8e-05	5.8e-05	
CC1(C)CC=C(C#Cc2ccccc2)c2cc(/C=C/c3ccc(C(=O)O)cc3)ccc21 [NCGC00387103-01]	-2.2	-97.274	5.17e-05	5.17e-05	
Cc1cc2c(F)c(Oc3ncnn4cc(OCC(C)OC(=O)C(C)N)c(C)c34)ccc2[nH]1 (centres unmarked) [NCGC00389340-01]		-57.426			Curve class: -3; Emax: -49.7%
COC(=O)[C@@]1(C)C(=O)C=C[C@]2(C)c3c(O)cc(C(C)C)cc3[C@H](O)[C@@H](OC(C)=O)C12 (some centres unmarked) [NCGC00385132-01]	-3	-68.661	1.42e-05	1.42e-05	
COc1ccc2cc1Oc1ccc(cc1)C[C@H]1c3c(cc4c(c3Oc3cc5c(cc3OC)CCN(C)[C@@H]5C2)OCO4)CCN1C [NCGC00161621-05]		-31.519	6.51e-05	6.51e-05	
CCN(CC)C(=O)c1ccc(Nc2nc(OCC3CCCCC3)c3nc[nH]c3n2)cc1 [NCGC00370819-01]		-42.267	4.61e-05	4.61e-05	
Nc1c([S+](=O)([O-])c2ccccc2)c2nc3ccccc3nc2n1-c1ccc(F)cc1 [NCGC00351779-01]		-26.957	7.31e-05	7.31e-05	
